As usually defined, the GI50 is the concentration giving 50% growth inhibition. By TGI is commonly meant the concentration giving total growth inhibition. Read a high TGI as lower sensitivity of the cells.

This note sets out measurements from PubChem BioAssay (NCI).

Test systems include CCRF-CEM leukemia; HCC-2998 colon; HOP-62 NSCLC; LOX IMVI melanoma; SF-295 CNS; SK-MEL-28 melanoma; SN12C renal; SW-620 colon; UACC-62 melanoma; UO-31 renal.
Holding throughout (assay): DTP human tumour cell line panel, 48 h

Where “and” joins values, the source holds several entries; their conditions need not be identical. Equal entries are not always repeated.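 How tested: cells in 96-well plates exposed to compound for 48 hours at five concentrations. GI50 is the concentration that inhibits growth by half. Definition used: TGI = concentration required for complete inhibition of growth.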

As for `CCC1(OC(=O)CN)C(=O)OCc2c1cc1n(c2=O)Cc2cc3cc4c(cc3nc2-1)OCO4` (centres undefined), the GI50 in the assay with CCRF-CEM leukemia was under 10 nM; in the assay with HCC-2998 colon, 101 nM; with HOP-62 NSCLC, under 10 nM; in the assay on LOX IMVI melanoma it was under 10 nM; with SF-295 CNS it was under 10 nM; with SK-MEL-28 melanoma, 195 nM and 294 nM. Further, the GI50 in the assay with SN12C renal was under 10 nM; with SW-620 colon, 11.6 nM and 16.5 nM; in the assay with UACC-62 melanoma, under 10 nM; with UO-31 renal it was < 10 nM and 61.4 nM. Moreover, the TGI with HCC-2998 colon was 1080 nM; in the assay on HOP-62 NSCLC it was under 10 nM; in the assay with LOX IMVI melanoma, 155 nM and 106 nM; in the assay with SF-295 CNS, 21.1 nM and < 10 nM; with SK-MEL-28 melanoma, 13300 nM and 11800 nM; in the assay on SN12C renal it was 21800 nM and > 100000 nM. Moreover, the TGI in the assay with SW-620 colon is > 100000 nM and 10200 nM; in the assay on UACC-62 melanoma it was under 10 nM; with UO-31 renal it was 151 nM and 400 nM.
For the compound `CCN(CCCl)c1cccc(NC(=O)c2ccc(C(=O)Nc3cccc(CN(C)C)c3)cc2)c1`, the TGI in the assay with CCRF-CEM leukemia was 1220 nM; in the assay on HCC-2998 colon it was 368 nM; with HOP-62 NSCLC it was 6140 nM; in the assay on LOX IMVI melanoma, 177 nM; in the assay with SF-295 CNS, 13200 nM; with SK-MEL-28 melanoma, 680 nM. The TGI turned out to be 2440 nM with SN12C renal, 11900 nM in the assay with SW-620 colon, 309 nM in the assay on UACC-62 melanoma and 1810 nM in the assay with UO-31 renal.
As to `CS(=O)(=O)[O-].CS(=O)(=O)[O-].NC1CCCCC1N.[Pt+4]` (centres undefined), the GI50 was 40200 nM with CCRF-CEM leukemia; over 100000 nM with HCC-2998 colon; over 100000 nM in the assay with HOP-62 NSCLC; over 61000 nM in the assay with LOX IMVI melanoma; over 100000 nM with SF-295 CNS; 71600 nM in the assay on SK-MEL-28 melanoma. The GI50 is over 84700 nM in the assay on SN12C renal, 13000 nM with SW-620 colon, over 100000 nM with UACC-62 melanoma and over 96500 nM in the assay on UO-31 renal. For the same compound, the TGI in the assay with CCRF-CEM leukemia, with HCC-2998 colon, in the assay on HOP-62 NSCLC, in the assay on LOX IMVI melanoma, in the assay with SF-295 CNS and with SK-MEL-28 melanoma was over 100000 nM each time. Besides, the TGI in the assay with SN12C renal, in the assay on SW-620 colon, in the assay with UACC-62 melanoma and with UO-31 renal was over 100000 nM in each case.
On to `CCN(CC)/[N+]([O-])=N/O`, for which the TGI in the assay on CCRF-CEM leukemia, in the assay with HCC-2998 colon, in the assay with HOP-62 NSCLC, in the assay with LOX IMVI melanoma, with SF-295 CNS and in the assay with SK-MEL-28 melanoma was over 100000 nM in each case. In addition, the TGI in the assay on SN12C renal, in the assay with SW-620 colon, in the assay on UACC-62 melanoma and in the assay with UO-31 renal was over 100000 nM throughout.
With `Cn1c(=O)n(CC2CS2)c2ccccc21` (centres undefined), the TGI in the assay with CCRF-CEM leukemia, in the assay with HCC-2998 colon, in the assay with HOP-62 NSCLC, in the assay with LOX IMVI melanoma, in the assay with SF-295 CNS and in the assay on SK-MEL-28 melanoma was over 100000 nM each time. For the same compound, the TGI in the assay with SN12C renal, in the assay on SW-620 colon, with UACC-62 melanoma and with UO-31 renal was over 100000 nM each time.
On to `CC1(C)[C@@H](OC(N)=O)C=C[C@]2(CO)[C@H]3CC[C@]4(C)[C@@H](c5ccc(=O)oc5)[C@@H](Cl)C[C@]4(O)C3=CC[C@@H]12`, for which the GI50 is under 0.1 nM in the assay with CCRF-CEM leukemia; 11.3 nM in the assay on HCC-2998 colon; under 0.1 nM in the assay with HOP-62 NSCLC; 2.09 nM in the assay on LOX IMVI melanoma; 2.68 nM in the assay on SF-295 CNS; 11.6 nM in the assay on SK-MEL-28 melanoma. The GI50 with SN12C renal is under 0.1 nM; in the assay with SW-620 colon, 2.62 nM; in the assay on UACC-62 melanoma, 3.58 nM; in the assay with UO-31 renal it was 3.51 nM. The TGI stood at 13.1 nM with CCRF-CEM leukemia; 77.6 nM with HCC-2998 colon; 3.16 nM in the assay with HOP-62 NSCLC; 10.6 nM in the assay with LOX IMVI melanoma; 14.4 nM with SF-295 CNS; 30.3 nM in the assay with SK-MEL-28 melanoma. For the same compound, the TGI turned out to be 15.7 nM in the assay on SN12C renal, 14.5 nM in the assay on SW-620 colon, 13 nM with UACC-62 melanoma and 13.4 nM in the assay on UO-31 renal.
